Earlier results, collected in patent publication US11931445B2, “Composition comprising baicalin” (L'OREAL, priority 2016, dated 2024).

Key:
[1] = pH more than 6.5

Q: What does the source list for Baicalin?
A: solubility in an aqueous medium: very slightly soluble; chemical stability [1]: chemically unstable
